In patent US20250051344A1, “BIFUNCTIONAL SELECTIVE DEGRADERS OF SMARCA2 AND THERAPEUTIC USES THEREOF” (Nurix Therapeutics, Inc., priority 2023, published 2025):

Assays:
[1] = target: T1, SMARCA4 (Homo sapiens, UniProt P51532); assay: Cellular degradation assay, SMARCA4 (Table 1); assay type: cell-based
T1 construct: endogenous in cells

[2] = target: T2, SMARCA2 (Homo sapiens, UniProt P51531); assay: SMARCA2 Cellular Degradation Assay (Western blot analysis on Jess platform); assay type: cell-based; conditions: for DC50 / Dmax: cellular degradation; for Fold Selectivity SMARCA4/2: ratio DC50 SMARCA4 / DC50 SMARCA2
T2 construct: endogenous in cells
T2 sequence (P51531 whole entry, species assumed): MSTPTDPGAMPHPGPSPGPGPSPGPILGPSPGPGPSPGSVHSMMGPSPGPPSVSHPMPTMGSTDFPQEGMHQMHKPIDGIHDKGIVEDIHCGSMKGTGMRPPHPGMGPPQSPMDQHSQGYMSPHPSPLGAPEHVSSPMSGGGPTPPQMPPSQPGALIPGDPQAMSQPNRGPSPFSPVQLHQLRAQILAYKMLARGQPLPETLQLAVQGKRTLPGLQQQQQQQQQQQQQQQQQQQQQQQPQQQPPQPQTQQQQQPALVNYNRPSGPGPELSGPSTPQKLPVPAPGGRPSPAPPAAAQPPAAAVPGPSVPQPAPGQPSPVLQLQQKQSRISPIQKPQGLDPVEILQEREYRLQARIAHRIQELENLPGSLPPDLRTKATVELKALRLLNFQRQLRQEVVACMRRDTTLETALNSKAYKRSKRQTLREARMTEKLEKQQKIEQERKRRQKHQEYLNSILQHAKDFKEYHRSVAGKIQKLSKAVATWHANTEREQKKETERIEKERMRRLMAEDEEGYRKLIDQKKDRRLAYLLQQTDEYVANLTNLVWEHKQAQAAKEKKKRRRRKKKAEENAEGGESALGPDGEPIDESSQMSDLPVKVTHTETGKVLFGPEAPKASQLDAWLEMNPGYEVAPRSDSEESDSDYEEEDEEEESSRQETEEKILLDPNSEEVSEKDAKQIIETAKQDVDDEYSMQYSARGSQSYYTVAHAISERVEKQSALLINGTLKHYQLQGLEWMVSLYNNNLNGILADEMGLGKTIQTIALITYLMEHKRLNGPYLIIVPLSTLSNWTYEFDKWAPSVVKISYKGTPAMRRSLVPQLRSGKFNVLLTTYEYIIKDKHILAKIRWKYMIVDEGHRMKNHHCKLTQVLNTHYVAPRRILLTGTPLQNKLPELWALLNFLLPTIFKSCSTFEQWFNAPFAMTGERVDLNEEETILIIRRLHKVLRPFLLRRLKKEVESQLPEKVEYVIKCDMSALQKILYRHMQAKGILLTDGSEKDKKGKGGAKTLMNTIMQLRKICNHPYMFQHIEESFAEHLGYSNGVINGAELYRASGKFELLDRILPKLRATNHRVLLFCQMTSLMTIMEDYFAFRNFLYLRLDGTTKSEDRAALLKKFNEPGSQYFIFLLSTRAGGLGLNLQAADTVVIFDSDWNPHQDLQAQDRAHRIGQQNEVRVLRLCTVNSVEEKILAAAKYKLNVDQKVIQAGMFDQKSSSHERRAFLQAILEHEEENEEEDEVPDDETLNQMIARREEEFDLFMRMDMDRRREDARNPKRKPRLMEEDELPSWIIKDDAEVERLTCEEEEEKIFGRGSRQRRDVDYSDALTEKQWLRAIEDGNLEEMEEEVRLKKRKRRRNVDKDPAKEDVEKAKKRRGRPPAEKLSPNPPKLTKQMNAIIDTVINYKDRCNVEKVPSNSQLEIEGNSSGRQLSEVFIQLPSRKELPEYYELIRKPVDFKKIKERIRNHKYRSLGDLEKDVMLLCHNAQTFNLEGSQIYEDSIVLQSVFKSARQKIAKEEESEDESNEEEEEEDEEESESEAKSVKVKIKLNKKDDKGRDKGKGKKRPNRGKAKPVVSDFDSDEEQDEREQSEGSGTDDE
Summary of the method: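 Percent SMARCA2 remaining relative to vehicle was derived from capillary Western peak areas, each normalized to β-actin after capillary background subtraction. Samples were tumor-derived cell lysates, 5 μg total protein loaded, heated at 95° C. for 5 minutes before the Jess run.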

T1 sequence (P51532 whole entry, species assumed): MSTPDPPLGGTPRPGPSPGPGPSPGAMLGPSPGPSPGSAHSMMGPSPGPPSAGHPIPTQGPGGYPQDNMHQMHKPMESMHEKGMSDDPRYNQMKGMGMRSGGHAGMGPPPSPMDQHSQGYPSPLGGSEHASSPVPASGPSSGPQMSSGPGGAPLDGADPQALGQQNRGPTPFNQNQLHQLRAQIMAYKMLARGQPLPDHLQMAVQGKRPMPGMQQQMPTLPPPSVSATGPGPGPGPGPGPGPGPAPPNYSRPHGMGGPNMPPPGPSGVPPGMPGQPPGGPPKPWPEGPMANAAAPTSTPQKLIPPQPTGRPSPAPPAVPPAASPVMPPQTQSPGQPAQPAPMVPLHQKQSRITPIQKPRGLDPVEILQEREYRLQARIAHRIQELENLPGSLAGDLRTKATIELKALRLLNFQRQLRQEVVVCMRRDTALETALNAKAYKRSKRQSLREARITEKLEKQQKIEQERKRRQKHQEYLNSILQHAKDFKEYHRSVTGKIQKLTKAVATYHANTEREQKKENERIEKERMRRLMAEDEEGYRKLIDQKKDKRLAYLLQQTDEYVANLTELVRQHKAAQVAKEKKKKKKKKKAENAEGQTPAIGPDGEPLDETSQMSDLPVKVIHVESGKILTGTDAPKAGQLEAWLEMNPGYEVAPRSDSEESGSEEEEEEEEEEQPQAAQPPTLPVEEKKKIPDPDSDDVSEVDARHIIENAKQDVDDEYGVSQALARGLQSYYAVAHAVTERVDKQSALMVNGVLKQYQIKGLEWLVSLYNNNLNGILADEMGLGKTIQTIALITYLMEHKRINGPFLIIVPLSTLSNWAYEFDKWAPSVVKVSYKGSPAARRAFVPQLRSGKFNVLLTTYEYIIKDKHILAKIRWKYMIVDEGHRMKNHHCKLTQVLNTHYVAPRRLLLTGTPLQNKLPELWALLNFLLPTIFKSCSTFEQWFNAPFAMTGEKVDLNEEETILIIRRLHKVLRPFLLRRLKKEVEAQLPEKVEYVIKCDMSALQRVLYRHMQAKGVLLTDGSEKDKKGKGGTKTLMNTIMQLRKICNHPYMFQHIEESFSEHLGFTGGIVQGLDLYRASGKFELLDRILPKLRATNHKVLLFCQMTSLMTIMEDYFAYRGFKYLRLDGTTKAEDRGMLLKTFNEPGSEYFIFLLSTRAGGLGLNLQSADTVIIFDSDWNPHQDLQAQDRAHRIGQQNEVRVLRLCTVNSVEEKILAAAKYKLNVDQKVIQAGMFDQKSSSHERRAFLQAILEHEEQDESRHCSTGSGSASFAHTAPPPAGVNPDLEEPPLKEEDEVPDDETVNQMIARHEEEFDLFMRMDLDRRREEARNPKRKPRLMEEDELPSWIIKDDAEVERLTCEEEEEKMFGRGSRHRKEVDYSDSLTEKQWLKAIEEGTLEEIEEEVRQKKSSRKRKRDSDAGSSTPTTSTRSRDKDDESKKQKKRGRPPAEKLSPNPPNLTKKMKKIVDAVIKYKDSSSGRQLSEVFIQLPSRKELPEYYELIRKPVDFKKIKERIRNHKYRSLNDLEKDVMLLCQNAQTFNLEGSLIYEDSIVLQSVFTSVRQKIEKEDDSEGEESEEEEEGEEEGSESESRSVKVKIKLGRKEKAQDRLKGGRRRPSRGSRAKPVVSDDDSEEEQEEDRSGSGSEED

Compound | Dmax [1] [%] | DC50 [2] [nM] | Dmax [2] [%] | Fold Selectivity SMARCA4/2 [2] | DC50 [1] [nM]
O=C1CCC(Nc2ccc(C3CCN(CCNC(=O)C4(c5ccccc5)CCN(c5cnnc(-c6ccccc6O)c5)CC4)CC3)cc2)C(=O)N1 (racemic) [Example 170, rac-N-{2-[4-(4-{[(3R)-2,6-dioxopiperidin-3-yl]amino}phenyl)piperidin-1-yl]ethyl}-1-[6-(2-hydroxyphenyl)pyridazin-4-yl]-4-phenylpiperidine-4-carboxamide] | 48.5 | 38.3 | 59.2 | 261 | –
N#CC1(CN2CCN(c3ccc([C@@H]4CCC(=O)NC4=O)cc3)CC2)CC12CCN(C(=O)C1(c3ccccc3)CCN(c3cnnc(-c4ccccc4O)c3)CC1)CC2 (mixture of isomers) [Example 171, rac-1-[(4-{4-[(3R)-2,6-dioxopiperidin-3-yl]phenyl}piperazin-1-yl)methyl]-6-{1-[6-(2-hydroxyphenyl)pyridazin-4-yl]-4-phenylpiperidine-4-carbonyl}-6-azaspiro[2.5]octane-1-carbonitrile] | 41.4 | 28.5 | 69.5 | 35 | 1000
CN(C(=O)CN1CCN(c2ccc([C@H]3CCC(=O)NC3=O)cc2)CC1)[C@H]1CC[C@H](NC(=O)C2(Oc3ccccc3)CCN(c3cnnc(-c4ccccc4O)c3)CC2)CC1 (racemic) [Example 173, 1-[6-(2-hydroxyphenyl)pyridazin-4-yl]-4-phenoxy-N-[(1r,4r)-4-[2-(4-{4-[(3R)-2,6-dioxopiperidin-3-yl]phenyl}piperazin-1-yl)-N-methylacetamido]cyclohexyl]piperidine-4-carboxamide] | 39.8 | 44.9 | 62 | 223 | –
O=C1CC[C@H](c2ccc(N3CCC(CN[C@H]4CC[C@H](NC(=O)C5(c6ccccc6)CCN(c6cnnc(-c7ccccc7O)c6)CC5)CC4)CC3)cc2)C(=O)N1 (racemic) [Example 175, 1-[6-(2-hydroxyphenyl)pyridazin-4-yl]-4-phenyl-N-[(1r,4r)-4-{[(1-{4-[(3RS)-2,6-dioxopiperidin-3-yl]phenyl}piperidin-4-yl)methyl]amino}cyclohexyl]piperidine-4-carboxamide] | 35.6 | 29.8 | 60.2 | 335 | –
CC1(CN2CCC(c3ccc(C4CCC(=O)NC4=O)cc3)CC2)CCN(C(=O)C2(c3ccccc3)CCN(c3cnnc(-c4ccccc4O)c3)CC2)C1 (racemic) [Example 176, rac-(3R)-3-(4-{1-[(1-{1-[6-(2-hydroxyphenyl)pyridazin-4-yl]-4-phenylpiperidine-4-carbonyl}-3-methylpyrrolidin-3-yl)methyl]piperidin-4-yl}phenyl)piperidine-2,6-dione] | 53 | 22.3 | 76.8 | 449 | –
O=C1CCC(Nc2ccc(C3CCN(CC4CCC45CN(C(=O)C4(c6ccccc6)CCN(c6cnnc(-c7ccccc7O)c6)CC4)C5)CC3)cc2)C(=O)N1 (racemic) [Example 177, rac-(3R)-3-[(4-{1-[(2-{1-[6-(2-hydroxyphenyl)pyridazin-4-yl]-4-phenylpiperidine-4-carbonyl}-2-azaspiro[3.3]heptan-5-yl)methyl]piperidin-4-yl}phenyl)amino]piperidine-2,6-dione] | 54.5 | 3.53 | 71.5 | 6 | 21.6
O=C1CC[C@H](c2ccc(N3CCC4(CC3)CC(N[C@H]3CC[C@H](NC(=O)C5(c6ccccc6)CCN(c6cnnc(-c7ccccc7O)c6)CC5)CC3)CO4)cc2)C(=O)N1 (mixture of isomers) [Example 178, 1-[6-(2-hydroxyphenyl)pyridazin-4-yl]-4-phenyl-N-[(1r,4r)-4-[(8-{4-[(3RS)-2,6-dioxopiperidin-3-yl]phenyl}-1-oxa-8-azaspiro[4.5]decan-3-yl)amino]cyclohexyl]piperidine-4-carboxamide] | 62.2 | 10.1 | 76.2 | 7 | 70.3
O=C1CCC(c2ccc(N3CCC(F)(CN4CCC(NC(=O)C5(c6ccccc6)CCN(c6cnnc(-c7ccccc7O)c6)CC5)CC4)CC3)cc2)C(=O)N1 (racemic) [Example 179, rac-N-{1-[(1-{4-[(3R)-2,6-dioxopiperidin-3-yl]phenyl}-4-fluoropiperidin-4-yl)methyl]piperidin-4-yl}-1-[6-(2-hydroxyphenyl)pyridazin-4-yl]-4-phenylpiperidine-4-carboxamide] | 57.7 | 17.9 | 83.4 | 12 | 211
O=C1CCC(c2ccc(N3CC[C@H](CCN4CC5(C4)CN(C(=O)C4(c6ccccc6)CCN(c6cnnc(-c7ccccc7O)c6)CC4)C5)C3)nc2)C(=O)N1 (mixture of isomers) [Example 181, (3RS)-3-{6-[(3S)-3-[2-(6-{1-[6-(2-hydroxyphenyl)pyridazin-4-yl]-4-phenylpiperidine-4-carbonyl}-2,6-diazaspiro[3.3]heptan-2-yl)ethyl]pyrrolidin-1-yl]pyridin-3-yl}piperidine-2,6-dione] | 42.3 | 19.6 | 72.3 | 16 | 317
CCN(C(=O)C1(c2ccccc2)CCN(c2cnnc(-c3ccccc3O)c2)CC1)C1CCN(C(=O)CN2CCN(c3ccc(C4CCC(=O)NC4=O)cc3)CC2)CC1 (racemic) [Example 185, rac-N-{1-[2-(4-{4-[(3R)-2,6-dioxopiperidin-3-yl]phenyl}piperazin-1-yl)acetyl]piperidin-4-yl}-N-ethyl-1-[6-(2-hydroxyphenyl)pyridazin-4-yl]-4-phenylpiperidine-4-carboxamide] | 58.5 | 7.13 | 88.8 | 20 | 143
O=C1CCC(c2c(F)cc(N3CCC(CN4CC[C@@H](NC(=O)C5(c6ccccc6)CCN(c6cnnc(-c7ccccc7O)c6)CC5)CC45CCC5)CC3)cc2F)C(=O)N1 (mixture of isomers) [Example 188, N-[(8RS&)-5-[(1-{4-[(3RS)-2,6-dioxopiperidin-3-yl]-3,5-difluorophenyl}piperidin-4-yl)methyl]-5-azaspiro[3.5]nonan-8-yl]-1-[6-(2-hydroxyphenyl)pyridazin-4-yl]-4-phenylpiperidine-4-carboxamide] | 57.8 | 1.71 | 90.6 | 143 | 245
O=C1CCC(c2c(F)cc(N3CCC(CN4CCC5(CC4)CN(C(=O)C4(c6ccccc6)CCN(c6cnnc(-c7ccccc7O)c6)CC4)C5)CC3)cc2F)C(=O)N1 (racemic) [Example 193, rac-(3R)-3-(2,6-difluoro-4-{4-[(2-{1-[6-(2-hydroxyphenyl)pyridazin-4-yl]-4-phenylpiperidine-4-carbonyl}-2,7-diazaspiro[3.5]nonan-7-yl)methyl]piperidin-1-yl}phenyl)piperidine-2,6-dione] | 84.2 | 1.24 | 94.9 | 11 | 13.2
COC1(C(=O)N(C)C2CCN(CCC3CCN(c4ccc(C5CCC(=O)NC5=O)cc4)CC3)CC2)CCN(c2cnnc(-c3ccccc3O)c2)CC1 (racemic) [Example 195, rac-N-(1-(2-(1-(4-(2,6-dioxopiperidin-3-yl)phenyl)piperidin-4-yl)ethyl)piperidin-4-yl)-1-(6-(2-hydroxyphenyl)pyridazin-4-yl)-4-methoxy-n-methylpiperidine-4-carboxamide] | 20.3 | 13.7 | 70 | 727 | –
CN(C(=O)C1(c2ccccc2)CCN(c2cnnc(-c3ccccc3O)c2)CC1)C1CCN([C@@H]2COC3(CCN(c4ccc([C@H]5CCC(=O)NC5=O)cc4)CC3)C2)CC1 (single isomer, unassigned) [Example 148] | 41.4 | 6.84 | 83 | 1462 | –
CN(C(=O)C1(c2ccccc2)CCN(c2cnnc(-c3ccccc3O)c2)CC1)C1CCN([C@H]2COC3(CCN(c4ccc([C@H]5CCC(=O)NC5=O)cc4)CC3)C2)CC1 (single isomer, unassigned) [Example 149] | 41 | 7.34 | 84.9 | 1362 | –
O=C1CC[C@@H](c2ccc(N3CCC(CN4CC5(C4)CN(C(=O)C4(c6ccccc6)CCN(c6cnnc(-c7ccccc7O)c6)CC4)C5)CC3)cc2)C(=O)N1 [Example 8, (3S)-3-(4-{4-[(6-{1-[6-(2-hydroxyphenyl)pyridazin-4-yl]-4-phenylpiperidine-4-carbonyl}-2,6-diazaspiro[3.3]heptan-2-yl)methyl]piperidin-1-yl}phenyl)piperidine-2,6-dione] | 44.6 | 41.4 | 75.1 | 241.66 | –
O=C1CC[C@@H](c2ccc(N3CCC(CN4CCC5(C4)CN(C(=O)C4(c6ccccc6)CCN(c6cnnc(-c7ccccc7O)c6)CC4)C5)CC3)cc2)C(=O)N1 [Example 9, (3S)-3-(4-{4-[(2-{1-[6-(2-hydroxyphenyl)pyridazin-4-yl]-4-phenylpiperidine-4-carbonyl}-2,6-diazaspiro[3.4]octan-6-yl)methyl]piperidin-1-yl}phenyl)piperidine-2,6-dione] | 44.7 | 19.9 | 75.2 | 336.59 | 6720
O=C1CC[C@@H](c2ccc(N3CCC(CN4CCCC(CNC(=O)C5(c6ccccc6)CCN(c6cnnc(-c7ccccc7O)c6)CC5)C4)CC3)cc2)C(=O)N1 (stereo partly drawn) [Example 10, N-({1-[(1-{4-[(3S)-2,6-dioxopiperidin-3-yl]phenyl}piperidin-4-yl)methyl]piperidin-3-yl}methyl)-1-[6-(2-hydroxyphenyl)pyridazin-4-yl]-4-phenylpiperidine-4-carboxamide] | 25.6 | 80.1 | 59.3 | 124.82 | –
